Laboratory results published in US20220323406A1, “METHODS AND COMPOSITIONS FOR DIFFERENTIATING STEM CELLS” (Massachusetts Institute of Technology, priority 2019, published 2022).

Columns and labels:
[1] = test system: ENR+CD organoids (ISC to Paneth cell differentiation); test: Primary screen: basal (non-stimulated) lysozyme secretion LYZ.NS, 2.5-D 384-well ENR+CD organoid differentiation; assay type: cell-based, mouse
Source text: (§1) High-throughput screening.

ENR+CD organoids = test: Primary screen: ATP (CellTiter-Glo 3D, CTG) cell number/viability, 2.5-D 384-well ENR+CD organoids;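 also: compounds given at plating and again on day 3 over a 6-day differentiation from ENR+CV stem-cell-enriched precursors, ATP measured on day 6, plate median as control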
[2] = test system: ENR+CD organoids (ISC to Paneth cell differentiation); test: Primary screen: CCh-stimulated lysozyme secretion LYZ.S, 2.5-D 384-well ENR+CD organoid differentiation; assay type: cell-based, mouse; settings: primary screen
Source text: as §1

[3] = primary screen, dose 0.08 uM, standard z score
[4] = primary screen, dose 0.40 uM, standard z score
[5] = primary screen, dose 2.00 uM, standard z score
[6] = primary screen, dose 10.00 uM, standard z score
[7] = primary screen; dose 0.08 uM; FC vs plate median
[8] = primary screen; dose 0.40 uM; FC vs plate median
[9] = primary screen; dose 2.00 uM; FC vs plate median
[10] = primary screen; dose 10.00 uM; FC vs plate median
[11] = dose 0.08 uM, FC vs plate median
[12] = dose 0.40 uM, FC vs plate median
[13] = dose 2.00 uM, FC vs plate median
[14] = dose 10.00 uM, FC vs plate median
[15] = primary screen, standard z score, dose 0.08 uM
[16] = primary screen, standard z score, dose 0.40 uM
[17] = primary screen, standard z score, dose 2.00 uM
[18] = primary screen, standard z score, dose 10.00 uM
[19] = primary screen, dose 0.08 uM, FC relative to plate median
[20] = primary screen, dose 0.40 uM, FC relative to plate median
[21] = primary screen, dose 2.00 uM, FC relative to plate median
[22] = primary screen, dose 10.00 uM, FC relative to plate median

For `CNC(=O)[C@H](Cc1ccccc1)NC(=O)[C@H](CC(C)C)[C@H](CSc1cccs1)C(=O)NO` [Batimastat (BB-94)], the Dose.FC.LYZ.NS ([1]; primary screen, dose 0.08 uM) was −0.003 log2 fold change, the “Z.LYZ.NS (standard z score)” value ([1]; primary screen, dose 0.08 uM) was −0.025 and the Dose.FC.LYZ.NS ([1]; primary screen, dose 0.40 uM) was 0.005 log2 fold change. The “Z.LYZ.NS (standard z score)” value ([1]; primary screen, dose 0.40 uM) was 0.042, the Dose.FC.LYZ.NS ([1]; primary screen, dose 2.00 uM) was 0.081 log2 fold change and the “Z.LYZ.NS (standard z score)” value ([1]; primary screen, dose 2.00 uM) was 0.707. For the same compound, the Dose.FC.LYZ.NS ([1]; primary screen, dose 10.00 uM) was −0.075 log2 fold change, the “Z.LYZ.NS (standard z score)” value ([1]; primary screen, dose 10.00 uM) was −0.649 and the Dose.FC.CTG (ENR+CD organoids; primary screen, dose 0.08 uM) was 0.035 log2 fold change. For the same compound, the “Z.CTG (standard z score)” value (ENR+CD organoids; primary screen, dose 0.08 uM) was 0.084, the Dose.FC.CTG (ENR+CD organoids; primary screen, dose 0.40 uM) was −0.095 log2 fold change and the “Z.CTG (standard z score)” value (ENR+CD organoids; primary screen, dose 0.40 uM) was −0.226. For the same compound, the Dose.FC.CTG (ENR+CD organoids; primary screen, dose 2.00 uM) was −0.049 log2 fold change, the “Z.CTG (standard z score)” value (ENR+CD organoids; primary screen, dose 2.00 uM) was −0.117 and the Dose.FC.CTG (ENR+CD organoids; primary screen, dose 10.00 uM) was −0.283 log2 fold change. For the same compound, the “Z.CTG (standard z score)” value (ENR+CD organoids; primary screen, dose 10.00 uM) was −0.676, the Dose.FC.LYZ.S ([2]; dose 0.08 uM) was 0.053 log2 fold change and the Dose.FC.LYZ.S ([2]; dose 0.40 uM) was 0.028 log2 fold change. It also gave a Dose.FC.LYZ.S ([2]; dose 2.00 uM) of 0.056 log2 fold change and a Dose.FC.LYZ.S ([2]; dose 10.00 uM) of −0.107 log2 fold change.

`S=C=Nc1cccc(NC(=S)NCCCCNC(=S)Nc2cccc(N=C=S)c2)c1` [MRS 2578] gave a Z.LYZ.NS [1, 3] of 1.011, a Z.LYZ.NS [1, 4] of 0.311 and a Z.LYZ.NS [1, 5] of 0.270. It also gave a Z.LYZ.NS [1, 6] of 0.276, a Dose.FC.LYZ.NS [1, 7] of 0.116 log2 fold change and a Dose.FC.LYZ.NS [1, 8] of 0.036 log2 fold change. It also gave a Dose.FC.LYZ.NS [1, 9] of 0.031 log2 fold change, a Dose.FC.LYZ.NS [1, 10] of 0.032 log2 fold change and a Z.CTG (ENR+CD organoids; [3]) of −0.339. The Z.CTG (ENR+CD organoids; [4]) was 0.146, the Z.CTG (ENR+CD organoids; [5]) was −0.381 and the Z.CTG (ENR+CD organoids; [6]) was −0.544. For the same compound, the Dose.FC.CTG (ENR+CD organoids; [7]) was −0.142 log2 fold change, the Dose.FC.CTG (ENR+CD organoids; [8]) was 0.061 log2 fold change and the Dose.FC.CTG (ENR+CD organoids; [9]) was −0.159 log2 fold change. It also gave a Dose.FC.CTG (ENR+CD organoids; [10]) of −0.228 log2 fold change, a Dose.FC.LYZ.S [2, 11] of 0.095 log2 fold change and a Dose.FC.LYZ.S [2, 12] of 0.067 log2 fold change. The Dose.FC.LYZ.S [2, 13] was 0.023 log2 fold change and the Dose.FC.LYZ.S [2, 14] was 0.013 log2 fold change.

`OC[C@H]1O[C@@H](c2ccc(Cl)c(Cc3ccc(O[C@H]4CCOC4)cc3)c2)[C@H](O)[C@@H](O)[C@@H]1O` [Empagliflozin (BI 10773)] gave a Dose.FC.LYZ.NS ([1]; primary screen, dose 0.08 uM) of −0.006 log2 fold change, a Dose.FC.LYZ.NS ([1]; primary screen, dose 0.40 uM) of −0.034 log2 fold change and a Dose.FC.LYZ.NS ([1]; primary screen, dose 2.00 uM) of −0.009 log2 fold change. It also gave a Dose.FC.LYZ.NS ([1]; primary screen, dose 10.00 uM) of 0.017 log2 fold change, a Z.LYZ.NS [1, 15] of −0.052 and a Z.LYZ.NS [1, 16] of −0.294. For the same compound, the Z.LYZ.NS [1, 17] was −0.081, the Z.LYZ.NS [1, 18] was 0.144 and the Dose.FC.CTG (ENR+CD organoids; primary screen, dose 0.08 uM) was −0.296 log2 fold change. The Dose.FC.CTG (ENR+CD organoids; primary screen, dose 0.40 uM) was −0.075 log2 fold change, the Dose.FC.CTG (ENR+CD organoids; primary screen, dose 2.00 uM) was −0.192 log2 fold change and the Dose.FC.CTG (ENR+CD organoids; primary screen, dose 10.00 uM) was −0.134 log2 fold change. For the same compound, the Z.CTG (ENR+CD organoids; [15]) was −0.707, the Z.CTG (ENR+CD organoids; [16]) was −0.178 and the Z.CTG (ENR+CD organoids; [17]) was −0.458. For the same compound, the Z.CTG (ENR+CD organoids; [18]) was −0.320, the Dose.FC.LYZ.S ([2]; dose 0.08 uM) was −0.051 log2 fold change and the Dose.FC.LYZ.S ([2]; dose 0.40 uM) was −0.055 log2 fold change. For the same compound, the Dose.FC.LYZ.S ([2]; dose 2.00 uM) was −0.103 log2 fold change and the Dose.FC.LYZ.S ([2]; dose 10.00 uM) was −0.022 log2 fold change.

Compound `Cc1ccc(C(=O)N(CCCN)[C@@H](c2oc3cc(Cl)ccc3c(=O)c2Cc2ccccc2)C(C)C)cc1` [SB743921] has a Dose.FC.LYZ.NS [1, 19] of −0.232 log2 fold change, a Z.LYZ.NS [1, 3] of −2.017 and a Dose.FC.LYZ.NS [1, 20] of −0.247 log2 fold change. It also gave a Z.LYZ.NS [1, 4] of −2.148, a Dose.FC.LYZ.NS [1, 21] of −0.264 log2 fold change and a Z.LYZ.NS [1, 5] of −2.297. For the same compound, the Dose.FC.LYZ.NS [1, 22] was −0.238 log2 fold change, the Z.LYZ.NS [1, 6] was −2.068 and the Dose.FC.CTG (ENR+CD organoids; [19]) was −0.485 log2 fold change. It also gave a Z.CTG (ENR+CD organoids; [3]) of −1.159, a Dose.FC.CTG (ENR+CD organoids; [20]) of −0.777 log2 fold change and a Z.CTG (ENR+CD organoids; [4]) of −1.855. It also gave a Dose.FC.CTG (ENR+CD organoids; [21]) of −0.485 log2 fold change, a Z.CTG (ENR+CD organoids; [5]) of −1.158 and a Dose.FC.CTG (ENR+CD organoids; [22]) of −0.542 log2 fold change. It also gave a Z.CTG (ENR+CD organoids; [6]) of −1.294, a Dose.FC.LYZ.S ([2]; dose 0.08 uM, FC relative to plate median) of −0.321 log2 fold change and a Dose.FC.LYZ.S ([2]; dose 0.40 uM, FC relative to plate median) of −0.329 log2 fold change. The Dose.FC.LYZ.S ([2]; dose 2.00 uM, FC relative to plate median) was −0.340 log2 fold change and the Dose.FC.LYZ.S ([2]; dose 10.00 uM, FC relative to plate median) was −0.350 log2 fold change.

Compound `CCC(CC)(NC(=O)C(C)C)C(=O)N[C@@H](CCCN=C(N)N)C(=O)NC1(C(=O)NC(c2ccc(F)cc2)c2ccc(F)cc2)CCCC1` [MM-102] has a Z.LYZ.NS [1, 3] of −0.220, a Z.LYZ.NS [1, 4] of −0.090 and a Z.LYZ.NS [1, 5] of 0.230. It also gave a Z.LYZ.NS [1, 6] of −1.424, a Dose.FC.LYZ.NS [1, 7] of −0.025 log2 fold change and a Dose.FC.LYZ.NS [1, 8] of −0.010 log2 fold change. For the same compound, the Dose.FC.LYZ.NS [1, 9] was 0.026 log2 fold change, the Dose.FC.LYZ.NS [1, 10] was −0.164 log2 fold change and the Z.CTG (ENR+CD organoids; [3]) was −0.489. For the same compound, the Z.CTG (ENR+CD organoids; [4]) was −0.315, the Z.CTG (ENR+CD organoids; [5]) was −0.557 and the Z.CTG (ENR+CD organoids; [6]) was −0.964. For the same compound, the Dose.FC.CTG (ENR+CD organoids; [7]) was −0.205 log2 fold change, the Dose.FC.CTG (ENR+CD organoids; [8]) was −0.132 log2 fold change and the Dose.FC.CTG (ENR+CD organoids; [9]) was −0.233 log2 fold change. It also gave a Dose.FC.CTG (ENR+CD organoids; [10]) of −0.403 log2 fold change, a Dose.FC.LYZ.S [2, 11] of −0.027 log2 fold change and a Dose.FC.LYZ.S [2, 12] of −0.001 log2 fold change. For the same compound, the Dose.FC.LYZ.S [2, 13] was −0.035 log2 fold change and the Dose.FC.LYZ.S [2, 14] was −0.194 log2 fold change.
